{
  "source": "paper PMC6213970",
  "about": "“Identification of Enolase as the Target of 2-Aminothiazoles in Mycobacterium tuberculosis” (Frontiers in Microbiology, 2018)",
  "target": "T1, human α-enolase (Homo sapiens, UniProt P06733)",
  "T1 construct": "gene ENO1; commercial enzyme (Sigma)",
  "T1 sequence (P06733 2-434)": "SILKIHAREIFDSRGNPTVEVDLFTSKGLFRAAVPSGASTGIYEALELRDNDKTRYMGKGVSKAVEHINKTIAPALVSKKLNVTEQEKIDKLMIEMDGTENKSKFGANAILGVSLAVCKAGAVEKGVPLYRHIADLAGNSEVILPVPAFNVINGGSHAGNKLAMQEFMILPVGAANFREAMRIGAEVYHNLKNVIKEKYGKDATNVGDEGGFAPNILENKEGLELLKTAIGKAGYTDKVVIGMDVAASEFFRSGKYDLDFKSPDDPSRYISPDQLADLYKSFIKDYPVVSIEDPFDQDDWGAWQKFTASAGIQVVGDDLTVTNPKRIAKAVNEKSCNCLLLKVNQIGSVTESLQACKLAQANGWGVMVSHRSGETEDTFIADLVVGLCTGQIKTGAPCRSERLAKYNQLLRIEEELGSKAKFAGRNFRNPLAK",
  "assay": "pyruvate kinase-luciferase coupled assay (luminescence)",
  "format": "biochemical",
  "settings": "100 μM compound; 2-PG 0.2 mM (figure legend) or 0.5 mM (methods); 1 mM ADP, 10 mM MgSO4, 50 mM HEPES pH 7.0, 37°C, 1% DMSO",
  "data": [
    {"substance": "IDR-0106963", "values": [
      {"measurement": "% inhibition at 100 μM", "result": "> 90", "unit": "%"}
    ]}
  ]
}
